49 molecules from US6875743B1, “Cell adhesion inhibitors” (Biogen, Inc., priority 1996, dated 2005) can be followed below.

The assay deals with T1, VLA4 (Homo sapiens, UniProt P05556+P13612).
T1 construct: endogenous in cells; host or cells: Ramos cells
Briefly: Inhibition of VLA4-dependent adhesion to BSA-CS1. Conditions: binding of BCECF-labelled Ramos cells to BSA-CS1 coated wells, 2 mM MnCl2; read-out: IC50. Type of assay: cell-based.

Numbered stars: 1 amine (or outer) side, 2 acyl side, 3 side chain; on linkers, the order of the positions; unused ones are H or OH. Square brackets hold non-standard residues; d marks the D form. Peptide text beside a SMILES is read from it. * marks the point of attachment. X5 = COc1cc(CC(=O)[*:2])ccc1N[*:1]; Hydrocinnamoyl = O=C(CCc1ccccc1)*; X1 = O=C(Cc1ccc(N[*:1])cc1)[*:2]; NH(2-Me-phenyl) = Cc1ccccc1N*; NMeL = CN[CH](CC(C)C)C(=O)O; PhAc = O=C(Cc1ccccc1)*; Boc = CC(C)(C)OC(=O)*; Aib = CC(C)(N)C(=O)O; CO = O=C([*:1])[*:2]; NHPh = c1ccc(N*)cc1; Ahx = NCCCCCC(=O)O

T1 sequence (P13612 34-1032): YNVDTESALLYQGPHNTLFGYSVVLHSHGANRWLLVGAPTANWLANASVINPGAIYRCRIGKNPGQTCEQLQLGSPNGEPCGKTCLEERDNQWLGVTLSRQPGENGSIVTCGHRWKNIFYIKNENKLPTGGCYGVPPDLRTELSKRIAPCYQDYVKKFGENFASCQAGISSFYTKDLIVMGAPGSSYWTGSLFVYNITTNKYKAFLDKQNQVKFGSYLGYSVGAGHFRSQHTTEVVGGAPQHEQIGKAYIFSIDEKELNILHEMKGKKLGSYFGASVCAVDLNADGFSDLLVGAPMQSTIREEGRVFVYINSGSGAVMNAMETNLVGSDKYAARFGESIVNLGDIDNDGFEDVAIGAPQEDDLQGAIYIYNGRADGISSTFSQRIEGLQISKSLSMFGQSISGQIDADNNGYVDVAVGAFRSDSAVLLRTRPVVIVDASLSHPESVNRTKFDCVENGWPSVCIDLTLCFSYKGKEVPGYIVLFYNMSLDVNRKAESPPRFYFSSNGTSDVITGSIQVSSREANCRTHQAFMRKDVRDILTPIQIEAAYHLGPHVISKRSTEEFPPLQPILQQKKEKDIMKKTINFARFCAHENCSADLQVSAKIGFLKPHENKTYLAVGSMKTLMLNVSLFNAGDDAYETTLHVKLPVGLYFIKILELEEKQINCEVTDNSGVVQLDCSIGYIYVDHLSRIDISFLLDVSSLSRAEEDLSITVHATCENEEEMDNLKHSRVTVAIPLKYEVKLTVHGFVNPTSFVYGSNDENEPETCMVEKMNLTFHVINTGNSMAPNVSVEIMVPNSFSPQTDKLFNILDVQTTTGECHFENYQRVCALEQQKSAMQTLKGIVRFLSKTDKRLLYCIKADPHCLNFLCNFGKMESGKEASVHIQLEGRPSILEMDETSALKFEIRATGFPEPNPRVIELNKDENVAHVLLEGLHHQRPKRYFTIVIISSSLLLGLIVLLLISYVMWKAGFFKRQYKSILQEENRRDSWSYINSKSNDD
T1 sequence (P05556 21-798): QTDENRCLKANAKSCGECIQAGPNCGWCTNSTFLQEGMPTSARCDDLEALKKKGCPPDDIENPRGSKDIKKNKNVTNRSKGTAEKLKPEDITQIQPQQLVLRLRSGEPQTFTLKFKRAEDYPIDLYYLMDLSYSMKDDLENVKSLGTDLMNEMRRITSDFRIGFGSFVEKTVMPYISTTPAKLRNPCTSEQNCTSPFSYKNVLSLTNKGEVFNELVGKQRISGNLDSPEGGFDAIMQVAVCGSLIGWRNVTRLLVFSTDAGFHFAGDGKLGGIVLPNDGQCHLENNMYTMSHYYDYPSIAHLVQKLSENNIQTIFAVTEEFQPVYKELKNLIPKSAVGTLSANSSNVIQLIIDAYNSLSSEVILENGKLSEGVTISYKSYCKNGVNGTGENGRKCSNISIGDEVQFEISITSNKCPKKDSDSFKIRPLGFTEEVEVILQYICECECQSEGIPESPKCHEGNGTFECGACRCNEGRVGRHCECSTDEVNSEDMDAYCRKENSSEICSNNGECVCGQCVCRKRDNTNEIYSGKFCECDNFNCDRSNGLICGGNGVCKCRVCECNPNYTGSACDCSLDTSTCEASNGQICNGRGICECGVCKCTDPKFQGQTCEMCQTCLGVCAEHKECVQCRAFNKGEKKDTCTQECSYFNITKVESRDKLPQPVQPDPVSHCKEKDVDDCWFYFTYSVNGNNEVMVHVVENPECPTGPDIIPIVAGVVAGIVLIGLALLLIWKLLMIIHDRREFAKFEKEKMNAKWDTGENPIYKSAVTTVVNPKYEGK

One may read the IC50 as the concentration that inhibits the measured activity by half. With `Cc1ccccc1NC(=O)Nc1ccc(CC(=O)N[C@@H](CC(C)C)C(=O)N[C@@H](CC(=O)O)C(=O)N[C@H](CC(C)C)C(N)=O)cc1` [Compound 233], the IC50 was under 50 nM.
Regarding `CCn1cc(C(=O)N[C@@H](CC(C)C)C(=O)N[C@@H](CC(=O)O)C(=O)N[C@H](C(=O)O)C(C)C)c(=O)c2ccc(C)nc21` [Compound 403], the IC50 was over 10000 nM.
Consider `CSCC[C@H](NC(=O)Cc1ccc(NC(=O)Nc2ccccc2C)cc1)C(=O)N[C@@H](CC(=O)O)C(=O)N[C@H](CO)C(N)=O` [Compound 229], for which the IC50 is under 50 nM.
With `CC(C)C[C@H](NC(=O)c1ccc2c(c1)OCO2)C(=O)N[C@@H](CC(=O)O)C(=O)N[C@H](C(=O)O)C(C)C` [Compound 406] the figure was over 10000 nM.
With `Cc1ccccc1NC(=O)Nc1ccc(CC(=O)N[C@@H](CC(C)C)C(=O)N[C@@H](CC(=O)O)C(=O)N[C@H](C(=O)N2CCC[C@H]2C(=O)N[C@@H](CO)C(=O)O)C(C)C)cc1` [Compound 337] ({NH(2-Me-phenyl)-CO}-[X1]LDVPS-OH) the figure was under 50 nM; with `Cc1ccccc1NC(=O)Nc1ccc(CC(=O)N2CCC[C@H]2C(=O)N[C@@H](CCC(=O)O)C(=O)N[C@H](C(N)=O)C(C)C)cc1` [Compound 313], under 50 nM.
Consider `Cc1ccccc1NC(=O)Nc1ccc(CC(=O)N[C@H](CC(C)C)C(=O)N[C@@H](CC(=O)O)C(=O)N[C@@H](CCC(=O)O)C(N)=O)cc1` [Compound 290], for which the IC50 was under 50 nM.
In the case of `Cc1ccccc1NC(=O)Nc1ccc(CC(=O)N[C@@H](CC(C)C)C(=O)N[C@@H](CCC(=O)O)C(=O)N[C@H](C(N)=O)C(C)C)cc1` [Compound 311], the IC50 was under 50 nM.
As to `Cc1ccccc1NC(=O)Nc1ccc(CC(=O)N[C@@H](CC(C)C)C(=O)N[C@@H](CC(=O)O)C(=O)N[C@H](CC(N)=O)C(N)=O)cc1` [Compound 237], the IC50 is under 50 nM.
With `Cc1ccccc1NC(=O)Nc1ccc(CC(=O)NC(CC(C)C)C(=O)N2CN(Cc3ccc4c(c3)OCO4)C(=O)C[C@H]2C(=O)O)cc1` (mixture of isomers) [Compound 363] the figure was over 10000 nM; with `Cc1ccccc1NC(=O)Nc1ccc(CC(=O)N[C@H](CC(C)C)C(=O)N[C@@H](CC(=O)O)C(=O)N[C@H](CCC(=O)O)C(N)=O)cc1` [Compound 294], under 50 nM.
Under `COc1ccc2cc(C(C)C(=O)N[C@@H](CC(C)C)C(=O)N[C@@H](CC(=O)O)C(=O)N[C@H](C(=O)O)C(C)C)ccc2c1` (stereo partly shown) [Compound 394] stands over 10000 nM; under `CC(C)C[C@@H](NC(=O)Cc1ccc(NC(=O)Nc2ccccc2)cc1)C(=O)N[C@H](CC(=O)O)C(=O)N[C@@H](C(=O)N1CCC[C@@H]1C(N)=O)C(C)C` [Compound 212] ({NHPh-CO}-[X1][dL][dD][dV][dP]-NH2), 50 to 10000 nM; under `CNC(=O)C(C)(C)NC(=O)[C@H](CC(=O)O)NC(=O)[C@H](CC(C)C)NC(=O)Cc1ccccc1` [Compound 351] (PhAc-Leu-Asp-[Aib]-NHMe), over 10000 nM.
For `CCC(C)C(NC(=O)C(CC(=O)O)NC(=O)C(CC(C)C)NC(=O)Cc1ccccc1)C(=O)NC` (stereo not drawn) [Compound 55] (PhAc-Leu-Asp-Ile-NHMe; configuration not given here), the 50% inhibitory concentration (IC50) was over 10000 nM.
With `Cc1ccccc1NC(=O)Nc1ccc(CC(=O)N[C@H](CC(C)C)C(=O)N[C@@H](CC(=O)O)C(=O)N[C@@H](CC(C)C)C(N)=O)cc1` [Compound 287] the figure was under 50 nM; with `Cc1ccccc1NC(=O)Nc1ccc(CC(=O)N[C@@H](CC(C)C)C(=O)N[C@@H](CC(=O)O)C(=O)N[C@@H](CC(C)C)C(N)=O)cc1` [Compound 231], under 50 nM; with `CC(C)C[C@H](NC(=O)Cc1ccc(NC(=O)Nc2ccccc2)cc1)C(=O)N[C@@H](CC(=O)O)C(=O)N[C@H](C(=O)O)C(C)C` [Compound 203], under 50 nM.
With `CC(C)C[C@H](NC(=O)Nc1cnc2ccccc2n1)C(=O)N[C@@H](CC(=O)O)C(=O)N[C@H](C(=O)O)C(C)C` [Compound 380] the figure was over 10000 nM.
With `COC(=O)C[C@H](NC(=O)[C@H](CC(C)C)N(C)CCCc1ccccc1)C(=O)N[C@H](C(=O)OC)C(C)C` [Compound 112] the figure was over 10000 nM.
For the molecule `CC(C)CC(NC(=O)C(Cc1ccc(O)cc1)NC(=O)OC(C)(C)C)C(=O)NC(CC(=O)O)C(=O)NC(C(=O)O)C(C)C` (stereo not shown) [Compound 66] (Boc-YLDV-OH; configuration not given here), the IC50 is over 10000 nM.
As for `CNC(=O)C(NC(=O)C(CC(=O)O)NC(=O)C(CC(C)C)N(C)C(=O)CCc1ccccc1)C(C)C` (stereo not drawn) [Compound 184] (Hydrocinnamoyl-[NMeL]-Asp-Val-NHMe; configuration not given here), the IC50 was over 10000 nM.
For the molecule `CSCC[C@H](NC(=O)Cc1ccc(NC(=O)Nc2ccccc2C)cc1)C(=O)N[C@@H](CC(=O)O)C(=O)N[C@H](CC(C)C)C(N)=O` [Compound 222], the IC50 is under 50 nM.
`Cc1ccccc1NC(=O)Nc1ccc(CC(=O)N[C@@H](CCCCNC(=O)CCCCCN)C(=O)N[C@@H](CC(=O)O)C(=O)N[C@H](C(=O)N2CCC[C@H]2C(=O)O)C(C)C)cc1` [Compound 202] ({NH(2-Me-phenyl)-CO}-[X1]K(Ahx)DVP-OH): the IC50 lay in the range of 50 to 10000 nM.
Under `Cc1ccccc1NC(=O)Nc1ccc(CC(=O)N[C@H](C(=O)N[C@@H](CC(=O)O)C(=O)N[C@@H](CC(C)C)C(N)=O)[C@@H](C)O)cc1` [Compound 253] stands under 50 nM.
Under `COc1cccc(CC(=O)N[C@@H](CC(C)C)C(=O)N[C@@H](CC(=O)O)C(=O)N[C@H](C(=O)O)C(C)C)c1` [Compound 367] stands over 10000 nM.
Consider `CC(C)C[C@H](NC(=O)c1cc2ccccc2cn1)C(=O)NC(Cc1nnn[nH]1)C(=O)N[C@H](C(=O)O)C(C)C` (stereo partly shown) [Compound 10], for which the IC50 was over 10000 nM.
With `CC(C)C(NC(=O)C(CC(=O)O)NC(=O)C(NC(=O)c1cc2ccccc2cn1)C1CCCCC1)C(=O)O` (stereo not shown) [Compound 83] the figure was over 10000 nM; with `Cc1ccc2nc(C(=O)N[C@@H](CC(C)C)C(=O)N[C@@H](CC(=O)O)C(=O)N[C@H](C(=O)O)C(C)C)[nH]c(=O)c2c1` [Compound 370], over 10000 nM.
With `Cc1ccccc1NC(=O)Nc1ccc(CC(=O)N[C@@H](CCC(N)=O)C(=O)N[C@@H](CC(=O)O)C(=O)N[C@@H](CCC(=O)O)C(N)=O)cc1` [Compound 301] the figure was under 50 nM; with `COC(=O)[C@@H](NC(=O)[C@H](CC(=O)O)N1CCC(NC(=O)CCc2ccc(O)cc2)C1=O)C(C)C` (stereo partly shown) [Compound 335], over 10000 nM.
For `Cc1ccccc1NC(=O)Nc1ccc(CC(=O)N[C@@H](CCC(=O)O)C(=O)N[C@@H](CC(=O)O)C(=O)N[C@@H](CCC(=O)O)C(N)=O)cc1` [Compound 267], the IC50 was under 50 nM.
In the case of `CNC(=O)[C@@H](CC(C)C)NC(=O)[C@H](CC(=O)O)NC(=O)[C@@H]1CCCN1C(=O)Cc1ccc(NC(=O)Nc2ccccc2C)cc1` [Compound 409], the IC50 was 50 to 10000 nM.
Under `Cc1ccccc1NC(=O)Nc1ccc(CC(=O)N2CCC[C@H]2C(=O)N[C@@H](CC(=O)O)C(=O)N[C@@H](Cc2c[nH]c3ccccc23)C(N)=O)cc1` [Compound 250] stands under 50 nM.
With `CNC(=O)C(NC(=O)C(CC(=O)O)NC(=O)C(Cc1ccc(O)cc1)NC(=O)Cc1ccccc1)C(C)C` (stereo not drawn) [Compound 129] (PhAc-Tyr-Asp-Val-NHMe; configuration not given here) the figure was over 10000 nM; with `Cc1ccccc1NC(=O)Nc1ccc(CC(=O)N[C@@H](CCC(N)=O)C(=O)N[C@@H](CC(=O)O)C(=O)N[C@@H](CC(C)C)C(N)=O)cc1` [Compound 298], under 50 nM; with `CC(C)C[C@H](NC(=O)c1c2c(nc3ccccc13)CCCC2)C(=O)N[C@@H](CC(=O)O)C(=O)N[C@H](C(=O)O)C(C)C` [Compound 391], over 10000 nM.
Under `Cc1ccccc1NC(=O)Nc1ccc(CC(=O)NC(CCC(N)=O)C(=O)NC(CC(=O)O)C(=O)NC(CO)C(N)=O)cc1` (stereo not shown) [Compound 307] stands under 50 nM; under `CC[C@H](C)[C@H](NC(=O)[C@@H](CC(=O)O)NC(=O)[C@H](N)C(C)C)C(=O)NCc1ccc(NC(=O)Nc2ccccc2C)cc1` [Compound 344], over 10000 nM; under `Cc1ccccc1NC(=O)Nc1ccc(CC(=O)N2CCC[C@H]2C(=O)N[C@@H](CCC(=O)O)C(=O)N[C@@H](CC(=O)O)C(N)=O)cc1` [Compound 312], under 50 nM.
Turning to `Cc1ccccc1NC(=O)Nc1ccc(CC(=O)N[C@@H](CCC(=O)O)C(=O)N[C@@H](CC(=O)O)C(=O)N[C@H](CC(C)C)C(N)=O)cc1` [Compound 266], the IC50 is under 50 nM.
Turning to `CC(C)CC(NC(=O)CCc1ccc(O)cc1)C(=O)NC(CC(=O)O)C(=O)NC(C(=O)N1CCCC1C(=O)O)C(C)C` (stereo not shown) [Compound 38], the half-inhibitory concentration (IC50) is over 10000 nM.
Under `Cc1ccccc1NC(=O)Nc1ccc(CC(=O)N2CCC[C@H]2C(=O)N[C@@H](CC(=O)O)C(=O)N[C@H](C(N)=O)[C@@H](C)O)cc1` [Compound 246] stands under 50 nM.
On to `Cc1ccccc1NC(=O)Nc1ccc(CC(=O)N[C@H](C(=O)N[C@@H](CC(=O)O)C(=O)N[C@@H](CC(=O)O)C(N)=O)[C@@H](C)O)cc1` [Compound 252], for which the IC50 is under 50 nM.
In the case of `Cc1ccccc1NC(=O)Nc1ccc(CC(=O)N[C@H](CC(C)C)C(=O)N[C@@H](CC(=O)O)C(=O)N[C@H](C(N)=O)[C@@H](C)O)cc1` [Compound 291], the IC50 is under 50 nM.
As for `CC(C)CNC(=O)[C@@H](NC(=O)[C@H](CC(=O)O)NC(=O)[C@H](CC(C)C)NC(=O)Cc1ccc(NC(=O)Nc2ccccc2)cc1)C(C)C` [Compound 205], the IC50 fell in the range of 50 to 10000 nM.
With `COc1cc(CC(=O)NC(CCSC)C(=O)NC(CC(=O)O)C(=O)NC(C(=O)N2CCCC2C(=O)O)C(C)C)ccc1NC(=O)Nc1ccccc1` (stereo not shown) [Compound 2] ({NHPh-CO}-[X5]MDVP-OH; configuration not given here) the figure was under 50 nM; with `Cc1ccccc1NC(=O)Nc1ccc(CC(=O)N[C@@H](CC(C)C)C(=O)N[C@@H](CC(=O)O)C(=O)N[C@H](CO)C(N)=O)cc1` [Compound 240], under 50 nM.
Regarding `CC(C)CC(NC(=O)Cc1ccc(NC(=O)Nc2ccccc2)cc1)C(=O)NC(CC(=O)O)C(=O)NC(C(=O)N1CCCC1C(N)=O)C(C)C` (stereo not shown) [Compound 199] ({NHPh-CO}-[X1]LDVP-NH2; configuration not given here), the IC50 fell in the range of 50 to 10000 nM.
